The source of these data is the METLIN SMRT retention time set (Domingo-Almenara et al. 2019).

The data set in a line: gradient 5% acetonitrile 3 min, to 50% in 2 min, to 85% in 15 min, held 3 min, 100 µL/min. The settings on record: column: Zorbax Extend-C18 2.1 x 50 mm; eluents: water / acetonitrile, 0.1% formic acid. The procedure, abridged:
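Retention times come from adduct peaks that were picked computationally and then checked by hand. The standards, pure and pooled in mixtures of ~100 molecules, were run on a Zorbax Extend-C18 column (2.1 × 50 mm, 1.8 μm) at 100 μL/min with water and acetonitrile, each with 0.1% formic acid. Detection was by quadrupole time-of-flight mass spectrometry in positive and negative ionization mode, with a dead volume of 40 μL and a dwell volume of 900 μL.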
`Cc1cc(NC(=O)Cn2cnc(-c3cccs3)cc2=O)sn1` gave an RP-LC retention time of 654 s.

In the case of `COc1ccc(-c2nc(C3CC(=O)N(c4ccc(Cl)cc4)C3)no2)c(C)c1` (centres undefined), the RP-LC retention time was 1140 s.

For the compound `CCCOc1ccc(C(=O)Nc2nnc(SCc3nnc(-c4ccccc4C)o3)s2)cc1`, the RP-LC retention time came out at 1110 s.

`CC(C)CC(=O)Nc1ccc(-n2cnc(C(=O)N3CCC4(CC3)OCCO4)c2)nc1` gave an RP-LC retention time of 677 s.

For `CCc1nc(-c2csc(S(=O)(=O)N3CCCC(C(=O)Nc4c(C)cccc4CC)C3)c2)no1` (centres undefined), the RP-LC retention time was determined as 1080 s.

`CSc1ccc(Cc2nnc(NC(=O)c3cccc(C(F)(F)F)c3)o2)cc1` displayed an RP-LC retention time of 907 s.

As to `O=C(CCc1ccccc1)NC1CCS(=O)(=O)C1` (centres undefined), the RP-LC retention time was determined as 619 s.

Consider `O=C(COc1ccc(-c2nnc3n2CCCC3)cc1)Nc1ccc(Br)cc1`, for which the RP-LC retention time turned out to be 734 s.

As to `CCOC(=O)c1c(C)[nH]c(C(=O)N2CCC(C(C)C(=O)NCc3ccccc3C)CC2)c1C` (centres undefined), the RP-LC retention time came to 851 s.

`COc1ccc(Nc2nc(N3CCN(c4ccc(F)cc4)CC3)nc3n[nH]nc23)cc1`: the RP-LC retention time is 840 s.

As to `O=C(COc1ccc(Cl)cc1)NCC(=O)N1CCCc2ccccc21`, the RP-LC retention time amounted to 910 s.

As for `CC(C)c1nnc(C2CN(Cc3cccc(C(F)(F)F)c3)CC23CCN(C)CC3)o1` (centres undefined), the RP-LC retention time is 593 s.

The compound `CC(=O)Nc1ccc(C(=O)N2CCN(c3ccc(F)cc3)CC2)c(N2CCCCC2)c1` came in with an RP-LC retention time of 833 s.

As to `CCOC(=O)c1sc(NC(=O)C2CCCO2)nc1-c1ccccc1` (centres undefined), the RP-LC retention time was found to be 950 s.

As for `CCOc1ccc2nc(C(=O)NC3CCCC3)cn2n1`, the RP-LC retention time worked out at 822 s.

`CCOC(=O)c1noc2ncnc(Nc3cc(C)ccc3OC)c12` came in with an RP-LC retention time of 1060 s.

In the case of `COc1ccc(-c2ccc(SCC(=O)Nc3cccc([N+](=O)[O-])c3)nn2)cc1OC`, the RP-LC retention time was found to be 793 s.

Consider `CNC(=O)C1CCCN(c2nc3ncn(CC(=O)NCC4CCCO4)c(=O)c3s2)C1` (centres undefined), for which the RP-LC retention time came to 569 s.

Take `COc1ccc(-c2csc3c(=O)n(Cc4ccc(F)cc4)cnc23)cc1`: the RP-LC retention time was 1050 s.

Regarding `O=C(CCc1ccc2c(c1)CN(C(=O)C1COc3ccccc3O1)CCO2)N1CCOCC1` (centres undefined), the RP-LC retention time is 779 s.

`O=C(Cc1c[nH]c2ccccc12)NC1(c2nc(-c3ccncc3)no2)CCCCC1` had an RP-LC retention time of 807 s.

In turn, `Cc1ccc(C)c(N2CCN(C(=O)Cc3csc4nc(-c5ccc(C)c(C)c5)cn34)CC2)c1` gave an RP-LC retention time of 1120 s.

Turning to `CCCCn1cc(S(=O)(=O)N2CCN(c3cccc(C)c3)CC2)c2cccnc21`, the RP-LC retention time stood at 1220 s.

Take `Cc1nnc(N2CCCC(C(=O)NCCCN3CCCCCC3)C2)c2nn(-c3ccccc3)c(C)c12` (centres undefined): the RP-LC retention time worked out at 586 s.

Turning to `CCN1C(=O)c2ccccc2Oc2ccc(C(=O)NCc3cc(OC)ccc3OC)cc21`, the RP-LC retention time amounted to 932 s.

Compound `Cc1ccc(-c2nc(NC(=O)C(C)C)sc2C)cc1` came in with an RP-LC retention time of 1010 s.

As for `O=C(NCC#CCN1CCc2ccccc2C1)c1ccc(Cl)s1`, the RP-LC retention time was 587 s.

The compound `COc1ccc(OC)c(C2CCN(C(=O)c3nc(-c4oc5c(C)cccc5c4C)no3)C2)c1` (centres undefined) gave an RP-LC retention time of 1310 s.

In the case of `Cc1nc2cc(N3CC(C(=O)NCc4ccc(Br)cc4)CC3=O)ccc2o1` (centres undefined), the RP-LC retention time is 761 s.

Take `Cc1cc(N2CCN(C(=O)c3cccc(N(C)C)c3)CC2)nc2nncn12`: the RP-LC retention time was 1010 s.

Consider `CCOC(=O)c1nc(N2CCN(c3cccc(C(F)(F)F)c3)CC2)c2ccccc2n1`, for which the RP-LC retention time was found to be 1070 s.

`O=C1COc2ccc(S(=O)(=O)N3CCCC3C(=O)Nc3ccc(F)c(Cl)c3)cc2N1` (centres undefined) came in with an RP-LC retention time of 845 s.

Regarding `COc1ccc(-c2nc3cnccn3c2Nc2ccc(C(=O)NC3CCCCC3)cc2)cc1`, the RP-LC retention time was determined as 798 s.

`Cc1nn(-c2ccccc2)c(C)c1S(=O)(=O)N1CCC(C(=O)Nc2cccc(Cl)c2C)CC1` showed an RP-LC retention time of 1000 s.

`CCC(N)Cc1c[nH]c2ccccc12` (centres undefined) gave an RP-LC retention time of 646 s.

`CCC(=O)Nc1ccc(C2(C(=O)N3CCCCCC3)CCC2)cc1` yielded an RP-LC retention time of 801 s.

`O=C(Nc1cccc(C(F)(F)F)c1)c1ccc(-n2cnc(NC(=O)C3CC3)c2)cc1` gave an RP-LC retention time of 872 s.

Regarding `Cc1ccccc1OCCCC(=O)Nc1nc(-c2ccc(Br)cc2)cs1`, the RP-LC retention time turned out to be 1280 s.

`O=C(CCNc1c(-c2cccc(F)c2)nc2cnccn12)NCc1ccc(Cl)cc1` came in with an RP-LC retention time of 785 s.

In turn, `CN(C)CCNC(=O)CN1C(=O)C2CCCCN2c2ccc(C(=O)N3CCCC3)cc21` (centres undefined) came in with an RP-LC retention time of 596 s.

Take `CCN(CC)CCCNC(=O)C(C)n1c(=O)c(C(F)(F)F)nc2cc(C)c(C)cc21` (centres undefined): the RP-LC retention time was 740 s.

Consider `CCOc1ccccc1CNC(=O)c1c(C)sc2ccn(CC)c(=O)c12`, for which the RP-LC retention time was 893 s.

For `CCOc1cc(=O)n2c(c1C(=O)Nc1cc(F)cc(F)c1)CCCC2`, the RP-LC retention time was determined as 794 s.

Consider `Cc1ncoc1C(=O)N1CCC(N2C(=O)C(OCC3CC3)C23CCOCC3)CC1` (centres undefined), for which the RP-LC retention time stood at 634 s.

`Nc1ncncc1-c1ccc2ccccc2c1` returned an RP-LC retention time of 668 s.

Compound `CC(C)Cc1ccc(S(=O)(=O)N(C)CC2CCOCC2)cc1` had an RP-LC retention time of 1010 s.

With `CNC(=O)C1Cc2ccccc2N1S(=O)(=O)c1cccc(C(F)(F)F)c1` (centres undefined), the RP-LC retention time worked out at 802 s.

For `O=C(Cc1ccccc1)Nc1nnc(CCSCCc2nnc(NC(=O)Cc3ccccc3)s2)s1`, the RP-LC retention time came out at 933 s.

Turning to `O=C(Cn1cccc(-c2nc(-c3ccccc3)no2)c1=O)Nc1cccc(Br)c1`, the RP-LC retention time was 940 s.

With `CC(C)NC(=O)Cn1ccn2nc(-c3ccccc3)c(CO)c2c1=O`, the RP-LC retention time was 666 s.

Regarding `Cc1cc(NC(=O)c2ccc(-c3cncnc3)nc2)ccc1Br`, the RP-LC retention time came to 859 s.

Compound `CCOc1ccc(C(=O)N2C[C@H](c3nc(-c4ccccc4)no3)[C@@H](C)C2)cc1` came in with an RP-LC retention time of 1070 s.

As for `COC(=O)c1c(C)[nH]c(C(=O)N2CCC(CC(=O)NCCc3c[nH]c4ccccc34)CC2)c1C`, the RP-LC retention time was found to be 722 s.

In turn, `COc1ccc2c(c1)C=C(C(=O)Nc1ccc(OC)cc1OC)C=CO2` had an RP-LC retention time of 699 s.

As for `Cn1nc(-c2nc(-c3ccc(F)cc3)no2)c2c1CCN(C(=O)NC1CCCC1)C2`, the RP-LC retention time worked out at 771 s.

In turn, `CCOc1cc(=O)n2c(c1C(=O)NC1CCCCC1)CCCCC2` registered an RP-LC retention time of 734 s.

Consider `Cc1ccc(S(=O)(=O)N2CC(=O)N(c3ccccc3F)C(C)(C(=O)NCCC(C)C)C2)cc1` (centres undefined), for which the RP-LC retention time turned out to be 1020 s.

For the compound `O=C(NC1CC1)c1ccc(OCC2CCCN(C(=O)c3ccc(F)c(Cl)c3)C2)cc1` (centres undefined), the RP-LC retention time was 862 s.

`Cc1sc(NC(=O)c2ccccc2)c(C(Nc2ccccn2)c2cccs2)c1C` (centres undefined) displayed an RP-LC retention time of 746 s.
